pIC50, pKi: −log10 of the molar value.
Legend:
[1] = tested on: Human platelet aggregation caused by ADP; test: Inhibition of ADP-induced platelet aggregation (Mimic-human PRP); assay type: cell-based; settings: 20 μM ADP, human platelet concentrate diluted with PPP, absorption at 595 nm
Outline: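 Human PRP diluted with PPP to 3–4×10^8 platelets/mL was preincubated 20 min at room temperature with compound (0.01–30 μM, DMSO), then stimulated with 20 μM ADP. Aggregation read as A595 increase at 3 min versus 0 and 20 μM ADP controls; Ki from sigmoidal non-linear regression.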

Human P2Y12 receptor = molecular target: T1, Human P2Y12 receptor (Homo sapiens, UniProt Q9H244); test: Human P2Y12 receptor cell membrane binding assay with [3H] 2-Mes-ADP; settings: 1 nM [3H] 2-Mes-ADP, membranes of HEK cells expressing P2Y12 receptor; read-out: Binding activity (IC50)
T1 construct: expressed in transfected cells; host or cells: HEK cells
Outline: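 Membranes from HEK cells expressing human P2Y12 were incubated with compound and 1 nM [3H]2-MeS-ADP for 1 h at room temperature. Bound radioactivity was collected by GF/B filtration.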

T1 sequence (Q9H244 whole entry): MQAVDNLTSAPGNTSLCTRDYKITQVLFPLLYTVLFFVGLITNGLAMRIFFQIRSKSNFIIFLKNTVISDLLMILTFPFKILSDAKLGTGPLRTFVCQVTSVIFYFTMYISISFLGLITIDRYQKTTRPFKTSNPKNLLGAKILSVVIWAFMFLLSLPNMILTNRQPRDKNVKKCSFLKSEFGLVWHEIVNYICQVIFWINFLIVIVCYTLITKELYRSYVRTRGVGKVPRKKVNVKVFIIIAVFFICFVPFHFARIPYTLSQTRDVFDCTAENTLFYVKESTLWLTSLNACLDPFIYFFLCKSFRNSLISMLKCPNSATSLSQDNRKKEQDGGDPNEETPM

Row | SMILES | pKi [1] | pIC50 (Human P2Y12 receptor)
1 | CCCc1cc2c(N3CCn4c(nnc4C(F)(F)F)C3)nc(C(=O)Nc3ccccc3)nc2s1 [Example 4-16, 6-Propyl-4-(3-trifluoromethyl-5,6-dihydro-8H-[1,2,4]triazolo[4,3-a]pyrazin-7-yl)-thieno[2,3-d]pyrimidine-2-carboxylic acid phenylamide] | < 5.40 | 6.19
2 | CCCc1cc2c(N3CCn4c(nnc4C(F)(F)F)C3)nc(C(=O)NCc3ccccc3)nc2s1 [Example 4-17, 6-Propyl-4-(3-trifluoromethyl-5,6-dihydro-8H-[1,2,4]triazolo[4,3-a]pyrazin-7-yl)thieno[2,3-d]pyrimidine-2-carboxylic acid benzylamide] | 5.80 | 6.68
3 | CCc1cc2c(N3CCn4c(nnc4C(F)(F)F)C3)nc(CO)nc2s1 [Example 4-18, [6-Ethyl-4-(3-trifluoromethyl-5,6-dihydro-8H-[1,2,4]triazolo[4,3-a]pyrazin-7-yl)thieno[2,3-d]pyrimidin-2-yl]methanol] | 5.80 | 5.82
4 | CCCc1cc2c(N3CCn4c(nnc4C(F)(F)F)C3)nc(CO)nc2s1 [Example 4-19, [6-Propyl-4-(3-trifluoromethyl-5,6-dihydro-8H-[1,2,4]triazolo[4,3-a]pyrazin-7-yl)-thieno[2,3-d]pyrimidin-2-yl]methanol] | 6.60 | 6.30
5 | CCCc1cc2c(N3CCn4c(nnc4C(F)(F)F)C3)nc(CN3CC[C@@H](O)C3)nc2s1 [Example 4-21, (R)-1-[6-Propyl-4-(3-trifluoromethyl-5,6-dihydro-8H-[1,2,4]triazolo[4,3-a]pyrazin-7-yl)thieno[2,3-d]pyrimidin-2-ylmethyl]pyrrolidin-3-ol] | 6.85 | 5.95
6 | CCCc1cc2c(N3CCn4c(nnc4C(F)(F)F)C3)nc(COC(=O)c3ccccc3)nc2s1 [Example 4-22, Benzoic Acid 6-propyl-4-(3-trifluoromethyl-5,6-dihydro-8H-[1,2,4]triazolo[4,3-a]pyrazin-7-yl)thieno[2,3-d]pyrimidin-2-ylmethyl ester] | 5.80 | 6.07
7 | CCCc1cc2c(N3CCn4c(nnc4C(F)(F)F)C3)nc(COc3ccccc3)nc2s1 [Example 4-23, 7-(2-Phenoxymethyl-6-propyl-thieno[2,3-d]pyrimidin-4-yl)-3-trifluoromethyl-5,6,7,8-tetrahydro-[1,2,4]triazolo[4,3-a]pyrazine] | 5.16 | 6.38
8 | CCCc1cc2c(N3CCn4c(nnc4C(F)(F)F)C3)nc(COc3ccccc3C(=O)OC)nc2s1 [Example 4-24, 2-[6-Propyl-4-(3-trifluoromethyl-5,6-dihydro-8H-[1,2,4]triazolo[4,3-a]pyrazin-7-yl)thieno[2,3-d]pyrimidin-2-ylmethoxy]benzoic acid methyl ester] | 5.09 | 6.15
9 | CCCc1cc2c(N3CCn4c(nnc4C(F)(F)F)C3)nc(COc3ccccc3C(=O)O)nc2s1 [Example 4-25, 2-[6-Propyl-4-(3-trifluoromethyl-5,6-dihydro-8H-[1,2,4]triazolo[4,3-a]pyrazin-7-yl)thieno[2,3-d]pyrimidin-2-ylmethoxy]benzoic acid] | 5.72 | 6.45
10 | CCCc1cc2c(N3CCn4c(nnc4C(F)(F)F)C3)nc(COc3cccc(C(=O)O)c3)nc2s1 [Example 4-26, 3-[6-Propyl-4-(3-trifluoromethyl-5,6-dihydro-8H-[1,2,4]triazolo[4,3-a]pyrazin-7-yl)thieno[2,3-d]pyrimidin-2-ylmethoxy]benzoic acid] | 5.68 | 6.80
11 | CCCc1cc2c(N3CCn4c(nnc4C(F)(F)F)C3)nc(-c3nc(CC)no3)nc2s1 [Example 4-27, 7-[2-(3-Ethyl-[1,2,4]oxadiazol-5-yl)-6-propyl-thieno[2,3-d]pyrimidin-4-yl]-3-trifluoromethyl-5,6,7,8-tetrahydro-[1,2,4]triazolo[4,3-a]pyrazine] | 5.82 | 6.89
12 | CCCc1cc2c(N3CCn4c(nnc4C(F)(F)F)C3)nc(-c3nc(-c4ccccc4)no3)nc2s1 [Example 4-28, 7-[2-(3-Phenyl-[1,2,4]oxadiazol-5-yl)-6-propyl-thieno[2,3-d]pyrimidin-4-yl)-3-trifluoromethyl-5,6,7,8-tetrahydro-[1,2,4]triazolo[4,3-a]pyrazine] | 6.17 | 6.48
13 | CCCc1cc2c(N3CCn4c(nnc4C(F)(F)F)C3)nc(-c3nc(CCOC)no3)nc2s1 [Example 4-29, 7-{2-[3-(2-Methoxy-ethyl)-[1,2,4]oxadiazol-5-yl]-6-propyl-thieno[2,3-d]pyrimidin-4-yl}-3-trifluoromethyl-5,6,7,8-tetrahydro-[1,2,4]triazolo[4,3-a]pyrazine] | 6.32 | 6.48
14 | CCCc1cc2c(N3CCn4c(nnc4C(F)(F)F)C3)nc(-c3nc(CCO)no3)nc2s1 [Example 4-30, 2-{5-[6-Propyl-4-(3-trifluoromethyl-5,6-dihydro-8H-[1,2,4]triazolo[4,3-a]pyrazin-7-yl)thieno[2,3-d]pyrimidin-2-yl]-[1,2,4]oxadiazol-3-yl}ethanol] | 6.08 | 5.19
15 | CCCc1cc2c(N3CCn4c(nnc4C(F)(F)F)C3)nc(-c3nc(CC(OC)OC)no3)nc2s1 [Example 4-31, 7-{2-[3-(2,2-Dimethoxy-ethyl)-[1,2,4]oxadiazol-5-yl]-6-propyl-thieno[2,3-d]pyrimidin-4-yl}-3-trifluoromethyl-5,6,7,8-tetrahydro-[1,2,4]triazolo[4,3-a]pyrazine] | < 5.40 | 6.38
16 | CCCc1cc2c(N3CCn4c(nnc4C(F)(F)F)C3)nc(-c3nnc(C)o3)nc2s1 [Example 4-32, 7-[2-(5-Methyl-[1,3,4]oxadiazol-2-yl)-6-propyl-thieno[2,3-d]pyrimidin-4-yl]-3-trifluoromethyl-5,6,7,8-tetrahydro-[1,2,4]triazolo[4,3-a]pyrazine] | 6.82 | 6.64
17 | CCCc1cc2c(N3CCn4c(nnc4C(F)(F)F)C3)nc(-c3nnc(-c4ccccc4)o3)nc2s1 [Example 4-33, 7-[2-(5-Phenyl-[1,3,4]oxadiazol-2-yl)-6-propyl-thieno[2,3-d]pyrimidin-4-yl]-3-trifluoromethyl-5,6,7,8-tetrahydro-[1,2,4]triazolo[4,3-a]pyrazine] | 7.00 | 7.12
18 | CCCc1cc2c(N3CCn4c(nnc4C(F)(F)F)C3)nc(-c3nnc(CC#N)o3)nc2s1 [Example 4-34, {5-[6-Propyl-4-(3-trifluoromethyl-5,6-dihydro-8H-[1,2,4]triazolo[4,3-a]pyrazin-7-yl)thieno[2,3-d]pyrimidin-2-yl]-[1,3,4]oxadiazol-2-yl}acetonitrile] | 7.89 | 7.17
19 | CCCc1cc2c(N3CCn4c(nnc4C(F)(F)F)C3)nc(-c3nnc(COC)o3)nc2s1 [Example 4-35, 7-[2-(5-Methoxymethyl-[1,3,4]oxadiazol-2-yl)-6-propyl-thieno[2,3-d]pyrimidin-4-yl]-3-trifluoromethyl-5,6,7,8-tetrahydro-[1,2,4]triazolo[4,3-a]pyrazine] | 7.52 | 6.89
20 | CCCc1cc2c(N3CCn4c(nnc4C(F)(F)F)C3)nc(-c3nnc(CO)o3)nc2s1 [Example 4-36, {5-[6-Propyl-4-(3-trifluoromethyl-5,6-dihydro-8H-[1,2,4]triazolo[4,3-a]pyrazin-7-yl)thieno[2,3-d]pyrimidin-2-yl]-[1,3,4]oxadiazol-2-yl}methanol] | 6.52 | 6.60
21 | CCCc1cc2c(N3CCn4c(nnc4C(F)(F)F)C3)nc(-c3nnc(CCOC)o3)nc2s1 [Example 4-37, 7-{2-[5-(2-Methoxyethyl)-[1,3,4]oxadiazol-2-yl]-6-propyl-thieno[2,3-d]pyrimidin-4-yl}-3-trifluoromethyl-5,6,7,8-tetrahydro-[1,2,4]triazolo[4,3-a]pyrazine] | 6.60 | 6.72
22 | CCCc1cc2c(N3CCn4c(nnc4C(F)(F)F)C3)nc(-c3nnc(CCO)o3)nc2s1 [Example 4-38, 2-{5-[6-Propyl-4-(3-trifluoromethyl-5,6-dihydro-8H-[1,2,4]triazolo[4,3-a]pyrazin-7-yl)thieno[2,3-d]pyrimidin-2-yl]-[1,3,4]oxadiazol-2-yl}ethanol] | 6.60 | 6.49
23 | CCCc1cc2c(N3CCn4c(nnc4C(F)(F)F)C3)nc(-c3nnc(N)o3)nc2s1 [Example 4-39, 5-[6-Propyl-4-(3-trifluoromethyl-5,6-dihydro-8H-[1,2,4]triazolo[4,3-a]pyrazin-7-yl)thieno[2,3-d]pyrimidin-2-yl]-[1,3,4]oxadiazol-2-ylamine] | 6.80 | 7.00
24 | CCCc1cc2c(N3CCn4c(nnc4C(F)(F)F)C3)nc(-c3nnc(CC(=O)OCC)o3)nc2s1 [Example 4-40, {5-[6-Propyl-4-(3-trifluoromethyl-5,6-dihydro-8H-[1,2,4]triazolo[4,3-a]pyrazin-7-yl)thieno[2,3-d]pyrimidin-2-yl]-[1,3,4]oxadiazol-2-yl}acetic acid ethyl ester] | 6.57 | 6.64
25 | CCCc1cc2c(N3CCn4c(nnc4C(F)(F)F)C3)nc(-c3nnc(CC(=O)O)o3)nc2s1 [Example 4-41, {5-[6-Propyl-4-(3-trifluoromethyl-5,6-dihydro-8H-[1,2,4]triazolo[4,3-a]pyrazin-7-yl)thieno[2,3-d]pyrimidin-2-yl]-[1,3,4]oxadiazol-2-yl}acetic acid] | 6.15 | 6.39
26 | CCCc1cc2c(N3CCn4c(nnc4C(F)(F)F)C3)nc(-c3nnc(Cc4ccccc4)o3)nc2s1 [Example 4-42, 7-[2-(5-Benzyl-[1,3,4]oxadiazol-2-yl)-6-propyl-thieno[2,3-d]pyrimidin-4-yl]-3-trifluoromethyl-5,6,7,8-tetrahydro-[1,2,4]triazolo[4,3-a]pyrazine] | 6.80 | 7.54

Source: patent US20110166121A1 (LG LIFE SCIENCES LTD., priority 2008, published 2011)
